The text below walks through data of patent US11554171B2, “Compounds and methods for the targeted degradation of bromodomain-containing proteins” (Arvinas Operations, Inc., priority 2015, dated 2023).

The test system of this experiment is c-myc in 22RV-1 cells. Description: Human c-myc ELISA assay. It is filed as cell-based. The following applies: Homo sapiens; for Emax: 22Rv1, 18 h, read-out: Degradation of BRD4: Maximum inhibition (%) c-Myc ELISA in 22RV1 cells; for DC50: 22Rv1, read-out: Degradation of BRD4: DC50 (uM) c-Myc ELISA in 22RV1 cells. As to the method:
22RV-1 cells are seeded at 30,000 cells/well at a volume of 75 μL/well in RPMI+10% FBS media in 96-well plates and grown overnight at 37 C. Cells are dosed with compounds at 4× concentration diluted in 0.4% DMSO; compounds are serially diluted 1:3 for 8-point dose curve. 25 ul of compounds is added to cells for a final concentration starting at 300 nM-0.3 nM or 1 uM-1 nM in 0.1% DMSO and incubated for 18 hrs. Media is aspirated, cells washed 1× with PBS and aspirated. Cells are lysed in 50 ul RIPA buffer (50 mM Tris pH8, 150 mM NaCl, 1% Tx-100, 0.1% SDS, 0.5% sodium deoxycholate) supplemented with protease and phosphatase inhibitors. Plates are incubated on ice for 15 minutes then centrifuged at 4 C for 10 min at 4000 rpm. Add 50 ul of cleared lysate from 96-well assay plate into 96-well c-myc ELISA plate (Novex, Life Technologies Catalog #KH02041). Reconstitute c-myc standard with standard diluent buffer; standard curve range is 333 pg/ml-0 pg/ml, diluted 1:2 for 8-point dose curve. The rest of the assay was performed following the protocol from the c-myc ELISA kit. Data is analyzed and plotted using GraphPad Prism software. Compounds described in this application were assayed and c-myc suppression potency is listed in the following Table (A: DC50<10 nM; B: DC50 10-100 nM; C: DC50: 100-1000 nM; D: DC50>1000 nM)

Some results are limits rather than exact numbers.

The term DC50 denotes the concentration at which degradation of the target reaches its halfway point. Consider `Cc1sc2c(c1C)C(c1ccc(Cl)cc1)=N[C@@H](CC(=O)N[C@H]1C[C@H](Oc3ccc(CC(=O)N[C@H](C(=O)N4C[C@H](O)C[C@H]4C(=O)N[C@@H](C)c4ccc(-c5nccn5C)cc4)C(C)(C)C)cc3)C1)c1nnc(C)n1-2` [Example 273], for which the Emax was under 5% and the DC50 is over 1 µM.
Take `Cc1ncsc1-c1ccc([C@H](C)NC(=O)[C@@H]2C[C@@H](O)CN2C(=O)[C@@H](NC(=O)C[C@@H]2N=C(c3ccc(Cl)cc3)c3c(sc(C)c3C)-n3c(C)nnc32)C(C)(C)C)cc1` [Example 349]: the Emax came to 22% and the DC50 was over 1 µM.
As to `Cc1ncsc1-c1ccc(CNC(=O)[C@@H]2C[C@@H](O)CN2C(=O)[C@@H](NC(=O)COCCOCCOCCCCOc2ccc(NC(=O)C[C@@H]3N=C(c4ccc(Cl)cc4)c4c(sc(C)c4C)-n4c(C)nnc43)cc2)C(C)(C)C)cc1` [Example 14], the Emax was 100% and the DC50 lay within 0.01 to 0.1 µM.
Consider `Cc1ncsc1-c1ccc([C@H](C)NC(=O)[C@@H]2C[C@@H](O)CN2C(=O)[C@@H](NC(=O)Cc2ccc(N3CC[C@@H](NC(=O)C[C@@H]4N=C(c5ccc(Cl)cc5)c5c(sc(C)c5C)-n5c(C)nnc54)C3)cc2)C(C)(C)C)cc1` [Example 230, (2S,4R)-1-[(2S)-2-(2-{4-[(3R)-3-{2-[(9S)-7-(4-chlorophenyl)-4,5,13-trimethyl-3-thia-1,8,11,12-tetraazatricyclo[8.3.0.0^2,^6]trideca-2(6),4,7,10,12-pentaen-9-yl]acetamido}pyrrolidin-1-yl]phenyl}acetamido)-3,3-dimethylbutanoyl]-4-hydroxy-N-[(1S)-1-[4-(4-methyl-1,3-thiazol-5-yl)phenyl]ethyl]pyrrolidine-2-carboxamide], for which the Emax was 100% and the DC50 was under 0.01 µM.
On to `Cc1ncsc1-c1ccc([C@H](C)NC(=O)[C@@H]2C[C@@H](O)CN2C(=O)[C@@H](NC(=O)CN2CCC(N3C[C@@H]4C[C@H]3CN4C(=O)C[C@@H]3N=C(c4ccc(Cl)cc4)c4c(sc(C)c4C)-n4c(C)nnc43)CC2)C(C)(C)C)cc1` [Example 368, (2S,4R)-1-[(2S)-2-(2-{4-[(1S,4S)-5-{2-[(9S)-7-(4-chlorophenyl)-4,5,13-trimethyl-3-thia-1,8,11,12-tetraazatricyclo[8.3.0.0^2,6]trideca-2(6),4,7,10,12-pentaen-9-yl]acetyl}-2,5-diazabicyclo[2.2.1]heptan-2-yl]piperidin-1-yl}acetamido)-3,3-dimethylbutanoyl]-4-hydroxy-N-[(1S)-1-[4-(4-methyl-1,3-thiazol-5-yl)phenyl]ethyl]pyrrolidine-2-carboxamide], for which the Emax was determined as 100% and the DC50 lay within 0.01 to 0.1 µM.
In the case of `Cc1ncsc1-c1ccc(CNC(=O)[C@@H]2C[C@@H](O)CN2C(=O)[C@H](C(C)C)N2Cc3ccccc3C2=O)c(OCCOCCOCCCCOCCOCCNC(=O)C[C@@H]2N=C(c3ccc(Cl)cc3)c3c(sc(C)c3C)-n3c(C)nnc32)c1` [Example 6], the Emax was found to be 100% and the DC50 fell in the range of 0.1 to 1 µM.
The matching figures for `Cc1ncsc1-c1ccc(CNC(=O)[C@@H]2C[C@@H](O)CN2C(=O)[C@@H](NC(=O)CCc2cccc(OCCNC(=O)C[C@@H]3N=C(c4ccc(Cl)cc4)c4c(sc(C)c4C)-n4c(C)nnc43)c2)C(C)(C)C)cc1` [Example 84]: 100% and under 0.01 µM.
`Cc1ncsc1-c1ccc([C@H](C)NC(=O)[C@@H]2C[C@@H](O)CN2C(=O)[C@@H](NC(=O)Cc2ccc(N3CC[C@H](NC(=O)C[C@@H]4N=C(c5ccc(Cl)cc5)c5c(sc(C)c5C)-n5c(C)nnc54)C3)cc2)C(C)(C)C)cc1` [Example 235, (2S,4R)-1-[(2S)-2-(2-{4-[(3S)-3-{2-[(9S)-7-(4-chlorophenyl)-4,5,13-trimethyl-3-thia-1,8,11,12-tetraazatricyclo[8.3.0.0^2,^6]trideca-2(6),4,7,10,12-pentaen-9-yl]acetamido}pyrrolidin-1-yl]phenyl}acetamido)-3,3-dimethylbutanoyl]-4-hydroxy-N-[(1S)-1-[4-(4-methyl-1,3-thiazol-5-yl)phenyl]ethyl]pyrrolidine-2-carboxamide]: the Emax was 97.5% and the DC50 is under 0.01 µM.
